Patent publication US20230322854A1, “HUNTINGTIN-RELATED PEPTIDE AGENTS AND USES THEREOF” (UNIVERSITY OF SOUTHERN CALIFORNIA, priority 2020, published 2023)
“Also recorded” adds a separate entry of the source. No end group written: not given here.

Assays:
[1] = biological target: T1, Httex1Q72 aggregates (Homo sapiens, UniProt P42858, INS38QQQQQQQQQQQQQQQQQQQQQQQQQQQQQQQQQQQQQQQQQQQQQQQQQQQ); experiment: Labeling of Httex1Q72 aggregates in fixed transfected HEK293 cells; format: cell-based; conditions: fixed cells 24 h after transfection, 0.1 micromolar peptide overnight
T1 construct: Httex1Q72 (without RFP) was transfected into HEK293 cells; expressed in transfected cells
T1 sequence (P42858 with tags, fused parts or gaps limits assumed, stated change not applied): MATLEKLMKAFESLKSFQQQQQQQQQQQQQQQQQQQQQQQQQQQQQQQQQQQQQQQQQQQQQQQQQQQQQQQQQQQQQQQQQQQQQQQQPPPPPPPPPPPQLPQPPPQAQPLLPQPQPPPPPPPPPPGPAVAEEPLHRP
Excerpt: Left panels show fluorescent images (top left panel: nuclear stain to visualize all cells; middle left panel: fluorescein signal arising from the HD8-SP10-HD1-fluorescein peptide; bottom left panel: antibody against fluorescein to further amplify fluorescein signal). Right panels show phase contrast image of the same field. Arrows point to cytoplasmic aggregates that could be visualized with fluorescent signals or under phase contrast. Asterisks mark intranuclear aggregates that were labeled with HD8-SP10-HD1-fluorescein but not anti-fluorescein antibody.
Next, we tested the ability of HD peptides to bind Httex1 aggregates formed in cultured cells. To do this, Httex1Q72 (without RFP) was transfected into HEK293 cells. […] The antibody labeled the rim of the cytoplasmic aggregates and the signal also surrounded some cell nuclei. Little antibody staining was observed on intranuclear aggregates.

[2] = test system: Httex1 aggregates; experiment: Labeling of Httex1 aggregates in brain sections of R6/1 mice; design: species or system mouse; conditions: R6/1 mice (34 weeks) versus age-matched control
Excerpt: Brain sections from age-matched littermate control and R6/1 mouse are shown in this figure.
HD8-HD1-fluorescein was also used on brain sections from R6/1 mice (34 weeks).

[3] = test system: Httex1 aggregates; experiment: Labeling of Httex1 aggregates in retinal sections of Huntington mouse models; conditions: 34-week-old R6/1 mice, 0.1 micromolar
Excerpt: FIG. 28 presents fluorescence microscopy pictures showing that HD8-Alexa488 labels aggregated Httex1 in retina sections from two different mouse model of Huntington disease. Left panels show nuclear stain that labels all cells. Right panels show signal from HD8-Alexa488. Top panels show a retinal section from a R6/1 mouse, and bottom panels show a retinal section from a zQ175KI mouse.
Left panels show nuclear stain that labels all cells (A1 and B1), and right panels show signal from HD8-SP10-HD1-fluorescein (A2 and B2). Top panels are higher magnification that show the ganglion cell layer of the retina, and the bottom panels are lower magnification micrographs that show all retinal layers. Labeling of all retinal layers is seen when the HD peptides are dimerized. The phase contrast panel to the left of the bottom panels show the corresponding retinal layers: ONL: outer nuclear layer that contain rod and cone photoreceptor cells, INL: inner nuclear layer that contains cell bodies from horizontal cells, bipolar cells, amacrine cells and Müller cells, GCL: ganglion cell layer.
To see whether HD peptides bind Httex1 aggregates formed in vivo, we used tissues from two different Huntington mouse models, R6/1 (34 weeks old) and zQ175KI (48 weeks). FIG. 28 show retinal sections from these mice incubated with 2 micromolar of HD8 conjugated with Alexa488 at its carboxyl terminus.
HD8-HD1-fluorescein (0.1 micromolar) was also used on retinal sections from 34-week-old R6/1 mice (FIG. 29). […] In addition, weaker signal from intranuclear aggregates was also observed. Further, the signal can now be detected in all layers of the retina where the nuclei reside.

[4] = test system: unbundled Huntingtin fibrils (exon 1); experiment: Radioactive binding assay, immobilized unbundled Huntingtin fibrils; conditions: for binding to Htt-fibrils: radiolabeled mRNA-peptide fusions, fibrils immobilized on beads
Excerpt: Messenger RNA (mRNA) display (described in (Roberts, et al. (1997) Proc Natl Acad Sci USA 94: 12297-302, Takahashi, et al. (2003) Trends Biochem Sci 28: 159-65); FIG. 2) was used to engineer peptide agents that bind to unbundled fibrils of Huntingtin exon 1. To do this, unbundled Huntingtin fibrils were generated by mixing biotinylated Huntingtin protein (exon 1; FIG. 1) with non-biotinylated exon 1 Huntingtin protein at a ratio of 1:20 (˜5% biotinylated Huntingtin). These fibrils were then immobilized on Neutravidin agarose (Thermo Fisher) or Streptavidin ultralink beads (Thermo Fisher) via the attached biotin. A MX9 (where X is any of the 20 natural amino acids) mRNA display library was generated using published procedures (Takahashi, et al. (2009) Methods Mol Biol 535: 293-314) and incubated with immobilized fibrils. Non-binding sequences were washed away and the remaining fibril binding peptides were amplified via RT-PCR. This process was repeated seven times.
(§1) The binding of the peptide library was determined using a radioactive binding assay. In this assay, peptides were radiolabeled by translating the mRNA coding for these peptides in the presence of ^35S-methionine using rabbit reticulocyte lysate (Jackson, et al. (1983) Methods Enzymol 96: 50-74). These peptides were translated in an mRNA display format and were thus linked to their encoding mRNA, as described above. After purification by dT chromatography, the radiolabeled peptides were incubated with Huntingtin fibrils immobilized on Neutravidin Agarose or Streptavidin Ultralink beads. The beads were then filtered through a Spin X column (Corning) to separate the supernatant and beads, then washed to remove unbound sequences. The supernatant, washes, and beads were all counted in a scintillation counter to determine the counts in each sample. The percent bound was determined by dividing the counts on the beads with the total counts (beads+washes+supernatant).

[5] = biological target: T2, Huntingtin Exon 1 Q39 (Homo sapiens, UniProt P42858, DUP21-38); experiment: Co-localization of Alexa 488-labeled peptide with Httex1 Q39-RFP in fixed N2A cells; format: cell-based, mouse; conditions: fixed N2A cells transfected with Httex1 Q39-RFP
T2 construct: expressing Huntingtin Exon 1 Q39 (mutant Huntingtin with 39 CAG repeats) fused to red fluorescent protein (tagRFP); expressed in transfected cells; host or cells: N2A (mouse neuroblastoma cell line)
T2 sequence (P42858 with tags, fused parts or gaps DUP21-38): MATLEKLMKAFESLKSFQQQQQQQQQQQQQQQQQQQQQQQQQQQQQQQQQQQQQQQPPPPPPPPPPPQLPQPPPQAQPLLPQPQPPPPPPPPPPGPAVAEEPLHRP
Method: In these experiments, N2A cells (mouse neuroblastoma cell line) were transfected with Httex1 Q39 fused with RFP (middle column). Cells were fixed and stained for HD 1 or HD 8 with Alexa 488 (left column). Co-localization of HD1/HD8 with Httex1 aggregates is shown in the merged image (co-localization observed in cells is indicated by white arrows). The “CTRL” rows show the non-transfected cells, which were treated with 5 times more peptide to confirm the localization was not due to aggregations of peptides or off-target binding occurring in the cell.
HD1 and HD8 were also tested to see if the synthetic peptide recognized Huntingtin fibrils from cells. In this assay, HD1 and HD8 are were labeled with the fluorescent dye, Alexa 488 and were incubated with fixed N2A cells (a mouse neuroblastoma cell line) that were expressing Huntingtin Exon 1 Q39 (mutant Huntingtin with 39 CAG repeats) fused to red fluorescent protein (tagRFP). In control experiments, with no Huntingtin exon 1 (Q39)-RFP fusion (Httex1 Q39) transfected, a diffuse signal is observed with HD1 and HD8 peptides (FIG. 11; Controls).

[6] = biological target: α-Synuclein fibrils (Homo sapiens, UniProt P37840); experiment: Radioactive binding assay, α-Synuclein fibrils; conditions: radiolabeled peptide
Method: as §1
(§2) HD1 and HD8 were also tested for binding specificity. Radiolabeled HD1 and HD8 were incubated with monomeric Huntingtin, unbundled Htt-fibrils, or α-Synuclein fibrils (α-Synuclein is another protein known to aggregate and form fibrils).

[7] = test system: Htt-fibrils; experiment: Competition binding of synthetic peptide against radiolabeled peptide on immobilized fibrils; conditions: competitor = synthetic peptide in DMSO, 3.2 Fibril; for binding of radiolabeled HD8 to Htt-fibrils on addition of synthetic peptide: not to the same extent as with radiolabeled HD1
Method: Radiolabeled HD1 or HD8 were bound to immobilized fibrils and the appropriate compound was tested in a competition binding assay. From left to right and for each dataset shown on the graph (i.e., “HD1” and “HD8”), the bars represent “No Target+DMSO”, “No Target+HD1”, “No Target+HD8”, “3.2 Fibril+DMSO”, “3.2 Fibril+HD1”, and “3.2 Fibril+HD8”.
HD1 and HD8 were chemically synthesized and purified by reverse-phase HPLC and resuspended in DMSO. In order to verify that these synthetic peptides were functional for binding, we designed a competition experiment. We radiolabeled HD1 and HD8 above then tested to see if synthetic HD1 or HD8 would compete and reduce binding of the radiolabeled peptides. […] Binding to Htt-fibrils (3.2 Fibril+DMSO) was reduced by the addition of synthetic HD1 (3.2 Fibril+HD1) or by addition of synthetic HD8 (3.2 Fibril+HD8).

[8] = test system: Htt-fibrils; experiment: EPR of spin-labeled peptide binding to Htt-fibrils; conditions: spin-labeled synthetic peptide
Method: FIG. 10 presents graphs showing testing binding of chemically synthesized HD1 or HD8 using Electron Paramagnetic Resonance (EPR). […] Panel B is a graph showing the results of experiments aimed at the determination of the stoichiometry of peptides binding to Httex1 molecules in the fibril, in which a spin-labeled peptide (HD1 or HD8) is added to 15 μM fibrils.
HD1 and HD8 binding was analyzed by electron paramagnetic resonance (EPR). The synthetic peptides were spin labeled using a free Cys at the C-terminus of the peptides. […] The stoichiometry of the complex was also studied using EPR, with varying amounts of peptide added to fibrils (FIG. 10, panel B).

[9] = test system: monomeric Huntingtin; experiment: Radioactive binding assay, monomeric Huntingtin; conditions: radiolabeled peptide
Method: as §1
HD1 through HD4 were also tested for binding to monomeric Huntingtin (FIG. 5).
as §2

[10] = Radioactive binding assay, beads without target (no target control); conditions: radiolabeled peptide
Method: as §1

[11] = test system: Huntingtin protein; experiment: In vitro Huntingtin aggregation assay imaged by electron microscopy; format: biochemical; conditions: synthetic peptide, 6 days
Method: Synthetic HD1 and HD8 were also tested for their ability to inhibit fibril formation in an in vitro Huntingtin aggregation assay. In this assay, Huntingtin protein aggregated over a period of 6 days, forming fibrils that could be imaged using electron microscopy (FIG. 8; Controls).

[12] = biological target: unbundled fibrils of Huntingtin exon 1 (about 5% biotinylated), immobilized on beads (UniProt P42858); experiment: radioactive binding assay, fibrils immobilised on beads
[13] = listed as HD8-SP10-HD1-fluorescein

Row | Substance | labeling of Httex1Q72 aggregates [1] | labeling of Httex1Q72 aggregates [1, 13] | labeling of brain sections [2] | labeling of brain sections [2, 13] | labeling of retinal sections [3] | labeling of retinal sections [3, 13] | binding to Htt-fibrils [4] | binding to Htt-fibrils in the presence of serum ([4]; serum diluted 1:2, 1:5 or 1:10 with buffer (TBST)) | colocalization of Alexa 488 signal and RFP signal [5] | binding to α-Synuclein fibrils [6] | binding of radiolabeled HD1 to Htt-fibrils on addition of synthetic peptide [7] | binding of radiolabeled HD8 to Htt-fibrils on addition of synthetic peptide [7] | EPR central line amplitude upon addition of Htt fibrils (peptide-fibril complex formation) [8] | binding to monomeric Huntingtin [9] | binding to beads without target [10] | inhibition of fibril formation [11] | fold less binding as compared with HD1 and HD8 [12]
1 | HD8-HD1-fluorescein: HD8-HD1 labeled with fluorescein at its carboxyl terminus (MWQMMNGMSQGSGTSGSSGSMDWWPMWPSL-fluorescein) | strong labeling of the round cytoplasmic Httex1Q72 aggregates (arrows) and intranuclear aggregates | bound Httex1Q72 aggregates | abundant signal from R6/1 brain | labels Httex1 aggregates in brain section | Robust signal from the peptide can be seen in the ganglion cell layer | enhanced reactivity of Httex1 aggregates in all retinal layers | – | – | – | – | – | – | – | – | – | – | –
2 | MDWWPMWPSL [HD1] | – | – | – | – | – | – | demonstrated binding to Htt-fibrils; also recorded: bind to Htt-fibrils; also recorded: show binding to Htt-fibrils | serum partially inhibits the binding | significant colocalization | little to no binding | reduced | similarly reduced | decrease in central line amplitude | little to no binding | little to no binding to beads without target; also recorded: little to no binding | significant inhibition of fibril formation | –
3 | MWQMMNGMSQ [HD8] | – | – | – | – | – | – | good binding to Htt-fibrils; also recorded: bind to Htt-fibrils; also recorded: show binding to Htt-fibrils | – | significant colocalization | little to no binding | reduced | similarly reduced | decrease in central line amplitude | little to no binding | little to no binding to beads without target; also recorded: little to no binding; also recorded: low binding to beads without target | significant inhibition of fibril formation | –
4 | QBP1 (peptide) | – | – | – | – | – | – | – | – | – | – | – | – | – | – | – | – | 10 fold
